Results as given in patent US20180289702A1, “LPA LEVEL REDUCTION FOR TREATING CENTRAL NERVOUS SYSTEM DISORDERS” (priority 2015, published 2018).

Columns and labels:
autotaxin = autotaxin (Homo sapiens, UniProt Q13822); settings: Gierse et al., 2010; cited from earlier work
[1] = tested on: hippocampal slices from PRG-1 KO mice; test: evoked EPSCs in hippocampal slices; format: cell-based
PRG-1 Ko mice = test: mEPSC recordings with PF8380, PRG-1 Ko; format: cell-based; settings: 1 μM
PRG-1+/− mice [2] = test: pre-pulse inhibition (PPI) of the startle response in PRG-1+/− mice; format: in vivo; settings: i.p. 3 hours prior to PPI, level not different to wt
Description: Animals were treated using the in-vivo potent autotaxin inhibitor PF 8380 (Gierse et al., 2010). Animals received a single i.p. injection 3 hours prior to PPI.

PRG-1R346T+/− animals = test: PPI in PRG-1R346T+/− knock-in mice; format: in vivo; settings: monoallelic PRG-1R346T+/− animals
Description: In order to investigate whether the described human mutation indeed results in a endophenotype for psychiatric disorders, the inventors produced an knock-in mouse line where the PRG-1^R346T mutated gene was introduced in place of the PRG-1 wild-type gene. Since only monoallelic PRG-1^R346T mutation carriers were detected, PRG-1^R346T+/− animals were used for the study, which correspond to the human in-vivo situation.
Animals received a single i.p. injection 3 hours prior to PPI.

PRG-1−/− neurons = test: spontaneous postsynaptic currents (sPSC) with PF8380; format: cell-based, mice; settings: 1 μm
[3] = tested on: animal model of schizophrenia induced by ketamine; test: ketamine-induced animal model of schizophrenia: PPI and open field hyperactivity; format: in vivo, mice
Source text: In order to correlate these electrophysiological effects with behavior in these mice, the inventors first analyzed PPI after ketamine application. […] In sum, ATX-inhibition has the general potential to normalize E/I balance in psychiatric disorders associated with increased glutamatergic input and opens a new therapeutic avenue towards treatment of psychiatric disorders.

PRG1−/− mice [4] = test: Morris water maze; format: in vivo; settings: untreated and PF8380-treated PRG1−/− mice, during training days
Description: For MWM the escape latency, swim speed, path length, and trajectory of swimming were recorded for each mouse. First, mice were trained for 5 days in “visible platform” task, than for 6 days in “hidden platform” task (spatial training), followed by a “probe trial”, which was repeated for 4 times. Mice received daily 4 trials for a maximum of 90 s with an intertrial interval of 5 min. The swim velocity (mean and max) and the immobility time (time spend not searching) were measured.

PRG-1+/− mice [5] = test: MCAO stroke model in PRG-1+/− mice; format: in vivo
Description: For stroke experiments, mice were anesthetized and occlusion of the medial cerebral artery (MCAO) was performed for 30 min (assessment after 3 days) or for 1 h (assessment after 1day) by introduction of an intraluminal filament as reported (Ploen et al., 2014). […] After 1 h or after 30 min of MCAO, respectively, mice recovered and were perfused 24 hours (1 h MCAO) or 72 hours (30 min MCAO) later. Brains were extracted, snap frozen and cryosectioned using a cryotome. Mounted brain slices were Nissl-Stained which allowed to measure infarct area and to calculate total infarct volume per animal. All measurements were performed in a blinded fashion. Data was assessed for normality and statistical analysis was performed using an one-tailed t-test.

PRG1−/− mice [6] = test: simultaneous in-vivo recordings of MEC and hippocampal CA1 in freely moving mice
Description: Electrophysiological measurements in freely moving animals were performed as described (O'Neill PK et al. 2013). Briefly, animals were kept during surgical procedures under isoflurane anesthesia and electrodes (WE3PT10.5F3, MicroProbes, Gaithersburg, Md., USA) were chronically implanted in the medial entorhinal cortex (MEC; 3.1 mm, lateral to the midline, 0.2 mm anterior to the transverse sinus at an angle of 6° in the anterior-to-posterior direction in the sagittal plane) and in the hippocampal CA1-region (1.5 mm lateral to the midline, 1.5 mm anterior-to-posterior and 1.2 mm dorsal-to-ventral at an angle of 0°). The electrodes were connected to an electrode interface board (EIB-16; Neuralynx, USA) and were secured to the skull using jewelers screws and dental cement. Neural data was acquired using a 16-channel head stage and a Digital Lynx data acquisition system (Neuralynx, USA). The animal's position was monitored using two light-emitting diodes mounted on the head stage. To extract local field potentials, the neural signals were bandpass filtered between 1 and 1000 Hz and digitized at 2 kHz. Separate recordings, each lasting 10 minutes, were made while animals moved freely in their home cage in an open field (0.5 m×0.5 m×0.5 m) and in a plus-maze with a length of 0.4 m per arm. Recordings were repeated for two days. Analysis of neural and behavioral data was performed using custom-written MATLAB scripts (MathWorks). Recording location was verified by current application at the end of the experiment after which animals were perfused, and the brains were cut on a vibratome and Nissl stained using cresyl violet.
Coherence of neuronal activity between the MEC and in the CA1 was computed using the multitaper method (MATLAB routines provided by K. Harris, University College London, London, UK, and G. Buzsáki, New York University, New York, N.Y., USA). […] Power was calculated by taking the absolute value of the wavelet transform and averaged across time to obtain the power spectrum. […]

wild type (WT) animals = test: mEPSC recordings with PF8380, wild type; format: cell-based, mice
mice = test: open field locomotion of food deprived animals; format: in vivo; settings: OF 10 min; controls, food deprived controls and food deprived animals treated with PF8380

Structure (SMILES): O=C(CCN1CCN(C(=O)OCc2cc(Cl)cc(Cl)c2)CC1)c1ccc2[nH]c(=O)oc2c1 [PF8380, 4-[3-(2,3-Dihydro-2-oxo-6-benzoxazolyl)-3-oxopropyl]-1-piperazinecarboxylic acid (3,5-dichlorophenyl)methyl ester]
- potency as inhibitor of the LPA-synthetizing enzyme autotaxin (autotaxin): nanomolar potency
- PPR [1]: increased
- evoked potentials (eEPSC, first stimulus) [1]: significantly affected
- second stimulus applied at an interval of 50 ms [1]: did not alter
- mEPSC amplitude (PRG-1 Ko mice): not influencing
- mEPSC frequency (PRG-1 Ko mice): significantly reduced
- PPI-deficit (PRG-1+/− mice [2]): significantly rescued
- Pre Pulse Inhibition (PPI) (PRG-1R346T+/− animals): rescue the decreased PPI to WT values
- sPSC amplitude (PRG-1−/− neurons): not affecting
- spontaneous postsynaptic currents (sPSC) (PRG-1−/− neurons): significantly reduced
- PPI [3]: rescued to WT values
- hyperactivity following ketamine application in an open field setting [3]: significantly reduced
- escape latency in the Morris-Water-Maze (PRG1−/− mice [4]): did not change
- infarct volume (PRG-1+/− mice [5]; 30 min MCAO measured 3 d after stroke): significantly decreased
- outcome in modified Neurologic Severity Score (PRG-1+/− mice [5]; 3 h, 24 h, 48 h and 72 h post MCAO): significantly improves
- long-term sensorimotor dysfunction, corner test (PRG-1+/− mice [5]; 24 h up to 72 h post MCAO): significantly improved
- gamma coherence between MEC and CA1 (PRG1−/− mice [6]; PF8380 treated PRG1−/− mice): reduced to WT levels
- peak frequency of theta coherence between MEC and CA1 (PRG1−/− mice [6]; PF8380 treated PRG1−/− mice compared with WT mice): lower
- average movement speed during exploratory behavior in the open field (PRG1−/− mice [6]; wild type, untreated and PF8380-treated PRG-1−/− mice): no difference
- mEPSC amplitudes (wild type (WT) animals): did not affect
- mEPSC frequency (wild type (WT) animals): did not affect
- locomotion in the open field, total distance (mice): did not display significant differences
